{"source": "patent US20200085776A1", "about": "“Methods of Reducing C-Reactive Protein and/or Treating Cardiovascular Disease” (CARDAX, INC., priority 2018, published 2020)", "system": "C-reactive protein (CRP)", "assay": "CRP (hs-CRP) in blood, CHASE clinical study", "type": "in vivo, human", "details": "Group X 12 mg BID", "excerpt": "This is a two-part study comprising Part I and Part II. Following screening, Part I consists of a randomized, double-blind, placebo controlled dosing period of up to 12 weeks. The study shall be conducted at one or more study sites in Hawaii. Approximately 360 subjects qualified after completion of screening procedures shall be randomized in a 1:1:1 ratio to one of three treatment groups, per Table 1.\nThe Part I 12-week double-blind dosing period commences with V2, including randomization and first dose of study product, and continues with study visits at Week 1-2 (V3), Week 4 (V4), Week 8 (V5), and Week 12 (V6). V6 procedures will conclude Part I.\nBlood shall be obtained at each visit for CRP. The screening specimen shall be processed at the local lab and reported to the study staff for eligibility determination; CRP samples at V7 and V8 may also be processed locally and reported directly to study staff. Samples for CRP from V2 through V6 may be batched, processed, and reported as specified in the Laboratory Manual.\nAt each these visits, blood was obtained for measurement of CRP, among other parameters. Table 7A provides a summary of the CRP measurements (mg/L) at each visit and Table 7B provides a summary of the differences of CRP levels between V2 and V6.", "key": {"[1]": {"details": "V1 screening, subjects with baseline level greater than 2.0"}, "[2]": {"details": "V2 baseline pre-dose, all subjects"}, "[3]": {"details": "V2 baseline pre-dose, subjects not taking a hypertension agent"}, "[4]": {"details": "V2 baseline pre-dose, subjects not taking any cardiac therapeutic agent"}, "[5]": {"details": "V2 baseline pre-dose, subjects not taking statins"}, "[6]": {"details": "V2 baseline pre-dose, subjects taking an anti-diabetic agent"}, "[7]": {"details": "V2 baseline pre-dose, subjects with CAD"}, "[8]": {"details": "V2 baseline pre-dose, subjects with DM2, hypertension and hyperlipidemia but not CAD"}, "[9]": {"details": "V2 baseline pre-dose, subjects with Diabetes Mellitus Type II"}, "[10]": {"details": "V2 baseline pre-dose, subjects with baseline level greater than 2.0"}, "[11]": {"details": "V2 baseline pre-dose, subjects with hyperlipidemia"}, "[12]": {"details": "V3 Week 1-2, subjects with baseline level greater than 2.0"}, "[13]": {"details": "V4 Week 4, subjects with baseline level greater than 2.0"}, "[14]": {"details": "V5 Week 8, subjects with baseline level greater than 2.0"}, "[15]": {"details": "V6 Week 12, subjects not taking a hypertension agent"}, "[16]": {"details": "V6 Week 12, subjects not taking any cardiac therapeutic agent"}, "[17]": {"details": "V6 Week 12, subjects not taking statins"}, "[18]": {"details": "V6 Week 12, subjects taking an anti-diabetic agent"}}, "data": [{"smiles": "CC1=C(/C=C/C(C)=C/C=C/C(C)=C/C=C/C=C(C)/C=C/C=C(C)/C=C/C2=C(C)C(=O)C(O)CC2(C)C)C(C)(C)CC(O)C1=O", "note": "(stereo not drawn) [Astaxanthin, astaxanthin]", "values": [{"measurement": "CRP Max", "setting": "V1 screening, all subjects", "value": 15.96, "unit": "mg/L"}, {"measurement": "CRP Mean (SD)", "setting": "V1 screening, all subjects", "value": "5.43 (3.91) mg/L"}, {"measurement": "CRP Median", "setting": "V1 screening, all subjects", "value": 3.95, "unit": "mg/L"}, {"measurement": "CRP Min", "setting": "V1 screening, all subjects", "value": 2.87, "unit": "mg/L"}, {"measurement": "CRP Max", "setting": "[1]", "value": 15.96, "unit": "mg/L"}, {"measurement": "CRP Mean (SD)", "setting": "[1]", "value": "5.64 (4.06) mg/L"}, {"measurement": "CRP Median", "setting": "[1]", "value": 3.98, "unit": "mg/L"}, {"measurement": "CRP Min", "setting": "[1]", "value": 2.87, "unit": "mg/L"}, {"measurement": "CRP Max", "setting": "[2]", "value": 17.86, "unit": "mg/L"}, {"measurement": "CRP Mean (SD)", "setting": "[2]", "value": "5.52 (4.80) mg/L"}, {"measurement": "CRP Median", "setting": "[2]", "value": 3.64, "unit": "mg/L"}, {"measurement": "CRP Min", "setting": "[2]", "value": 1.39, "unit": "mg/L"}, {"measurement": "CRP Max", "setting": "[3]", "value": "3.64, 3.64 mg/L"}, {"measurement": "CRP Mean (SD)", "setting": "[3]", "value": 3.64, "unit": "mg/L"}, {"measurement": "CRP Median", "setting": "[3]", "value": 3.64, "unit": "mg/L"}, {"measurement": "CRP Min", "setting": "[3]", "value": "3.64, 3.64 mg/L"}, {"measurement": "CRP Max", "setting": "[4]", "value": 17.86, "unit": "mg/L"}, {"measurement": "CRP Mean (SD)", "setting": "[4]", "value": "6.81 (6.86) mg/L"}, {"measurement": "CRP Median", "setting": "[4]", "value": 3.64, "unit": "mg/L"}, {"measurement": "CRP Min", "setting": "[4]", "value": 1.39, "unit": "mg/L"}, {"measurement": "CRP Max", "setting": "[5]", "value": 8.61, "unit": "mg/L"}, {"measurement": "CRP Mean (SD)", "setting": "[5]", "value": "4.04 (2.48) mg/L"}, {"measurement": "CRP Median", "setting": "[5]", "value": 3.12, "unit": "mg/L"}, {"measurement": "CRP Min", "setting": "[5]", "value": 2.16, "unit": "mg/L"}, {"measurement": "CRP Max", "setting": "[6]", "value": 17.86, "unit": "mg/L"}, {"measurement": "CRP Mean (SD)", "setting": "[6]", "value": "7.52 (5.87) mg/L"}, {"measurement": "CRP Median", "setting": "[6]", "value": 6.78, "unit": "mg/L"}, {"measurement": "CRP Min", "setting": "[6]", "value": 1.39, "unit": "mg/L"}, {"measurement": "CRP Max", "setting": "[7]", "value": "8.61, 8.61 mg/L"}, {"measurement": "CRP Mean (SD)", "setting": "[7]", "value": 8.61, "unit": "mg/L"}, {"measurement": "CRP Median", "setting": "[7]", "value": 8.61, "unit": "mg/L"}, {"measurement": "CRP Min", "setting": "[7]", "value": "8.61, 8.61 mg/L"}, {"measurement": "CRP Max", "setting": "[8]", "value": 17.86, "unit": "mg/L"}, {"measurement": "CRP Mean (SD)", "setting": "[8]", "value": "7.30 (6.54) mg/L"}, {"measurement": "CRP Median", "setting": "[8]", "value": 4.94, "unit": "mg/L"}, {"measurement": "CRP Min", "setting": "[8]", "value": 1.39, "unit": "mg/L"}, {"measurement": "CRP Max", "setting": "[9]", "value": 17.86, "unit": "mg/L"}, {"measurement": "CRP Mean (SD)", "setting": "[9]", "value": "7.52 (5.87) mg/L"}, {"measurement": "CRP Median", "setting": "[9]", "value": 6.78, "unit": "mg/L"}, {"measurement": "CRP Min", "setting": "[9]", "value": 1.39, "unit": "mg/L"}, {"measurement": "CRP Max", "setting": "[10]", "value": 17.86, "unit": "mg/L"}, {"measurement": "CRP Mean (SD)", "setting": "[10]", "value": "5.93 (4.85) mg/L"}, {"measurement": "CRP Median", "setting": "[10]", "value": 4.29, "unit": "mg/L"}, {"measurement": "CRP Min", "setting": "[10]", "value": 2.16, "unit": "mg/L"}, {"measurement": "CRP Max", "setting": "[11]", "value": 17.86, "unit": "mg/L"}, {"measurement": "CRP Mean (SD)", "setting": "[11]", "value": "6.71 (5.19) mg/L"}, {"measurement": "CRP Median", "setting": "[11]", "value": 4.95, "unit": "mg/L"}, {"measurement": "CRP Min", "setting": "[11]", "value": 1.39, "unit": "mg/L"}, {"measurement": "CRP Max", "setting": "V3 Week 1-2, all subjects", "value": 6.72, "unit": "mg/L"}, {"measurement": "CRP Mean (SD)", "setting": "V3 Week 1-2, all subjects", "value": "3.72 (2.06) mg/L"}, {"measurement": "CRP Median", "setting": "V3 Week 1-2, all subjects", "value": 3.44, "unit": "mg/L"}, {"measurement": "CRP Min", "setting": "V3 Week 1-2, all subjects", "value": 0.44, "unit": "mg/L"}, {"measurement": "CRP Max", "setting": "[12]", "value": 6.72, "unit": "mg/L"}, {"measurement": "CRP Mean (SD)", "setting": "[12]", "value": "3.97 (1.97) mg/L"}, {"measurement": "CRP Median", "setting": "[12]", "value": 3.55, "unit": "mg/L"}, {"measurement": "CRP Min", "setting": "[12]", "value": 0.44, "unit": "mg/L"}, {"measurement": "CRP Max", "setting": "V4 Week 4, all subjects", "value": 15.83, "unit": "mg/L"}, {"measurement": "CRP Mean (SD)", "setting": "V4 Week 4, all subjects", "value": "3.98 (4.24) mg/L"}, {"measurement": "CRP Median", "setting": "V4 Week 4, all subjects", "value": 2.56, "unit": "mg/L"}, {"measurement": "CRP Min", "setting": "V4 Week 4, all subjects", "value": 0.56, "unit": "mg/L"}, {"measurement": "CRP Max", "setting": "[13]", "value": 15.83, "unit": "mg/L"}, {"measurement": "CRP Mean (SD)", "setting": "[13]", "value": "4.22 (4.39) mg/L"}, {"measurement": "CRP Median", "setting": "[13]", "value": 3.27, "unit": "mg/L"}, {"measurement": "CRP Min", "setting": "[13]", "value": 0.56, "unit": "mg/L"}, {"measurement": "CRP Max", "setting": "V5 Week 8, all subjects", "value": 18.24, "unit": "mg/L"}, {"measurement": "CRP Mean (SD)", "setting": "V5 Week 8, all subjects", "value": "4.90 (4.99) mg/L"}, {"measurement": "CRP Median", "setting": "V5 Week 8, all subjects", "value": 3.71, "unit": "mg/L"}, {"measurement": "CRP Min", "setting": "V5 Week 8, all subjects", "value": 1.06, "unit": "mg/L"}, {"measurement": "CRP Max", "setting": "[14]", "value": 18.24, "unit": "mg/L"}, {"measurement": "CRP Mean (SD)", "setting": "[14]", "value": "5.29 (5.09) mg/L"}, {"measurement": "CRP Median", "setting": "[14]", "value": 4.08, "unit": "mg/L"}, {"measurement": "CRP Min", "setting": "[14]", "value": 1.06, "unit": "mg/L"}, {"measurement": "CRP Max", "setting": "V6 Week 12, all subjects", "value": 11.04, "unit": "mg/L"}, {"measurement": "CRP Mean (SD)", "setting": "V6 Week 12, all subjects", "value": "3.45 (3.09) mg/L"}, {"measurement": "CRP Median", "setting": "V6 Week 12, all subjects", "value": 2.70, "unit": "mg/L"}, {"measurement": "CRP Min", "setting": "V6 Week 12, all subjects", "value": 0.22, "unit": "mg/L"}, {"measurement": "CRP Max", "setting": "[15]", "value": "2.70, 2.70 mg/L"}, {"measurement": "CRP Mean (SD)", "setting": "[15]", "value": 2.70, "unit": "mg/L"}, {"measurement": "CRP Median", "setting": "[15]", "value": 2.70, "unit": "mg/L"}, {"measurement": "CRP Min", "setting": "[15]", "value": "2.70, 2.70 mg/L"}, {"measurement": "CRP Max", "setting": "[16]", "value": 6.80, "unit": "mg/L"}, {"measurement": "CRP Mean (SD)", "setting": "[16]", "value": "2.53 (2.56) mg/L"}, {"measurement": "CRP Median", "setting": "[16]", "value": 1.91, "unit": "mg/L"}, {"measurement": "CRP Min", "setting": "[16]", "value": 0.22, "unit": "mg/L"}, {"measurement": "CRP Max", "setting": "[17]", "value": 11.04, "unit": "mg/L"}, {"measurement": "CRP Mean (SD)", "setting": "[17]", "value": "3.86 (3.78) mg/L"}, {"measurement": "CRP Median", "setting": "[17]", "value": 2.71, "unit": "mg/L"}, {"measurement": "CRP Min", "setting": "[17]", "value": 0.22, "unit": "mg/L"}, {"measurement": "CRP Max", "setting": "[18]", "value": 6.80, "unit": "mg/L"}, {"measurement": "CRP Mean (SD)", "setting": "[18]", "value": "2.91 (2.07) mg/L"}, {"measurement": "CRP Median", "setting": "[18]", "value": 2.32, "unit": "mg/L"}, {"measurement": "CRP Min", "setting": "[18]", "value": 1.02, "unit": "mg/L"}, {"measurement": "CRP Max", "setting": "V6 Week 12, subjects with CAD", "value": "2.72, 2.72 mg/L"}, {"measurement": "CRP Mean (SD)", "setting": "V6 Week 12, subjects with CAD", "value": 2.72, "unit": "mg/L"}, {"measurement": "CRP Median", "setting": "V6 Week 12, subjects with CAD", "value": 2.72, "unit": "mg/L"}, {"measurement": "CRP Min", "setting": "V6 Week 12, subjects with CAD", "value": "2.72, 2.72 mg/L"}]}]}
